Assay [1] deals with T1, GST-ALK5 (TGF-beta receptor kinase) (Homo sapiens, UniProt P36897).
T1 sequence (P36897 34-503): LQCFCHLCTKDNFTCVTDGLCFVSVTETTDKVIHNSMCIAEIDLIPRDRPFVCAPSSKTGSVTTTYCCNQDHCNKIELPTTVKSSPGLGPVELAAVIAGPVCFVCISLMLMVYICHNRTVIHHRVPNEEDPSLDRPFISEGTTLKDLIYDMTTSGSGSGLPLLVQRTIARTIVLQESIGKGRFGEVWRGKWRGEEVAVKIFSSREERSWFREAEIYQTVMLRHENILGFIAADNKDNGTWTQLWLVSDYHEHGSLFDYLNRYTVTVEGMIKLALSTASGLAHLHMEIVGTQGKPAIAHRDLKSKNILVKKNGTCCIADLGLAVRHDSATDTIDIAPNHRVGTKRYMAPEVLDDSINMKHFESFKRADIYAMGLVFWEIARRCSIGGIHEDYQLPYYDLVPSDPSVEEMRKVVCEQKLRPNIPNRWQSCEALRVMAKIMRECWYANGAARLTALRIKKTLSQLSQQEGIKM
The assay can be described thus: In-vitro (enzyme) kinase flashplate assay: GST-ALK5 phosphorylation of GST-SMAD2 with 33P-ATP. Particulars: 384-well flashplate kinase assay, GST-ALK5 / GST-SMAD2, 33P-ATP, 30° C., 45 min; read-out: TβR activity (Example 50). The format is biochemical. The procedure: In-vitro (Enzyme) Assay for Determination of the Efficacy of Inhibitors of the Inhibition of TGF-Beta-Mediated Effects
The kinase assay was carried out as 384-well flashplate assay. 31.2 nM of GST-ALK5, 439 nM of GST-SMAD2 and 3 mM of ATP (with 0.3 μCi of ^33P-ATP/well) were incubated in a total volume of 35 μl (20 mM of HEPES, 10 mM of MgCl2, 5 mM of MnCl2, 1 mM of DTT, 0.1% of BSA, pH 7.4) without or with test substance (5-10 concentrations) at 30° C. for 45 min. The reaction was stopped using 25 μl of 200 mM EDTA solution, filtered with suction at room temperature after 30 min, and the wells were washed with 3 times 100 μl of 0.9% NaCl solution. Radioactivity was measured in the TopCount. The IC50 values were calculated using RS1.

The subject of assay [2] is TGF-beta-induced phosphorylation of Smad2 (Ser465/467) and Smad3 (Ser423/425) in Mv1-Lu cells. The assay can be described thus: Inhibition of Smad2/3 phosphorylation in Mv1Lu cells (PathScan Phospho-Smad2 ELISA). In kind it is cell-based, mink Mustela vison. To be noted: Neogale vison, read-out: TβR activity (Example 51). On the procedure: Inhibition of Smad2/3 Phosphorylation in Mv1 Lu Cells by TGF-Beta Receptor I Kinase Inhibitors
This assay was used to determine the inhibitory potency of compounds on TGF-beta-induced phosphorylation of Smad2 (Ser465/467) and Smad3 (Ser423/425). Mv1-Lu cells (lung epithelial cell line from mink Mustela vison; ATCC number: CCL-64) were seeded in DMEM (Invitrogen) supplemented with 10% fetal bovine serum (Pan Biotech) at a defined cell density in 24-well or 96-well plates (24-well plate: 1.5×10^5 cells per well; 96-well plate: 4×10^4 cells per well). Cell cultures were incubated in DMEM at 37° C. and 10% CO2. On the next day, the medium was replaced and cells were serum-starved for 16-20 hours. The following day, serial dilutions of compounds were added to the wells, pre-incubated for 1.5 hrs before recombinant TGF-beta 1 ligand (final concentration 5 ng/ml; R&D systems) was added. After one hour of ligand stimulation, lysates were prepared and analyzed using an enzyme-linked immunosorbent assay kit (PathScan Phospho-Smad2 Kit, Cell Signaling Technologies). The ELISA detects phosphorylated Smad2 as well as phosphorylated Smad3 with the phospho-specific antibody. TGF-beta stimulated cells and unstimulated cells served as positive and negative controls (100% and background control). The concentration of the vehicle DMSO was kept constant at 0.2% (v/v) in all wells. Dose-response relationships were fitted using curve fitting algorithms of the RS1 statistics software package (Brooks Automation Inc. RS/1- Statistical Tools Handbook. Release 6.2) to determine the concentration at which half-maximal inhibition (IC50) of Smad2/3 phosphorylation was achieved.
(An ELISA detects its analyte on a solid surface through an enzyme-linked reagent.)

[3] abbreviates: Mv1-Lu cells, TGF-beta 1 5 ng/ml, Phospho-Smad2/3 ELISA.

Structures can show the parent of a compound that is named as a salt. Where two headings read alike, the source gives them in different places.

With `Cc1cccc(-c2cc(-c3nccc4c(N)nccc34)c3cccnc3n2)n1` [Compound 21, 5-[2-(6-Methyl-pyridin-2-yl)-[1,8]naphthyridin-4-yl]-[2,6]naphthyridin-1-ylamine hydrochloride], the IC50 in assay [1] and in assay [2] was less than 1000 nM in each case.

For `COCC(=O)Nc1nccc2c(-c3cc(-c4ccccc4F)nc4ncccc34)nccc12` [Compound 73, N-{5-[2-(2-Fluoro-phenyl)-[1,8]naphthyridin-4-yl]-[2,6]naphthyridin-1-yl}-2-methoxy-acetamide], the IC50 in assay [1] and in assay [2] (setting [3]) was 1000 to 10000 nM each time.

On to `O=c1[nH]cc(-c2cc(-c3cc(F)ccc3F)nc3ncccc23)c2ccncc12` [Compound 107, 4-[2-(2,5-Difluoro-phenyl)-[1,8]naphthyridin-4-yl]-2H-[2,7]naphthyridin-1-one], for which the IC50 in assay [1] and in assay [2] (setting [3]) was less than 1000 nM throughout.

In the case of `Fc1ccccc1-c1cc(-c2ncnc3cnccc23)c2cccnc2n1` [Compound 18, 4-[2-(2-Fluoro-phenyl)-[1,8]naphthyridin-4-yl]-pyrido[3,4-d]pyrimidine], the IC50 was 1000 to 10000 nM in assay [1] and greater than 10000 nM in assay [2] (setting [3]).

As to `CN(C)CCOc1ccc(-c2cc(-c3cc(Cl)ccc3F)nc3ncccc23)c2ccncc12` [Compound 82, (2-{5-[2-(5-Chloro-2-fluoro-phenyl)-[1,8]naphthyridin-4-yl]-isoquinolin-8-yloxy}-ethyl)-dimethyl-amine], the IC50 in assay [1] and in assay [2] (setting [3]) was less than 1000 nM throughout.

In the case of `CCN(CC)CCOc1ncc(-c2cc(-c3cc(Cl)ccc3F)nc3ncccc23)c2ccncc12` [Compound 98, (2-{4-[2-(5-Chloro-2-fluoro-phenyl)-[1,8]naphthyridin-4-yl]-[2,7]naphthyridin-1-yloxy}-ethyl)-diethyl-amine], the IC50 in assay [1] and in assay [2] (setting [3]) was less than 1000 nM each time.

In the case of `Fc1ccc(Cl)cc1-c1cc(-c2cnc(OCCN3CCOCC3)c3cnccc23)c2cccnc2n1` [Compound 77, 2-(5-Chloro-2-fluoro-phenyl)-4-[1-(2-morpholin-4-yl-ethoxy)-[2,7]naphthyridin-4-yl]-[1,8]naphthyridine], the IC50 in assay [1] and in assay [2] (setting [3]) was less than 1000 nM in each case.

Regarding `Nc1nccc2c(-c3cc(-c4ccccc4)nc4ncccc34)nccc12` [Compound 87, 5-(2-Phenyl-[1,8]naphthyridin-4-yl)-[2,6]naphthyridin-1-ylamine], the IC50 in assay [1] and in assay [2] (setting [3]) was less than 1000 nM in each case.

As to `Fc1ccc(Cl)cc1-c1cc(-c2c[nH]c3cnccc23)c2cccnc2n1` [Compound 1, 2-(5-Chloro-2-fluoro-phenyl)-4-(1H-pyrrolo[2,3-c]pyridin-3-yl)-[1,8]naphthyridine], the IC50 in assay [1] and in assay [2] (setting [3]) was less than 1000 nM throughout.

In the case of `[O-][n+]1ccc2c(-c3cc(-c4ccccc4F)nc4ncccc34)nccc2c1` [Compound 88, 2-(2-Fluoro-phenyl)-4-(6-oxy-[2,6]naphthyridin-1-yl)-[1,8]naphthyridine], the IC50 in assay [1] and in assay [2] (setting [3]) was greater than 10000 nM each time.

`Nc1nccc2c(-c3cc(-c4ccccc4F)nc4ncccc34)cccc12` [Compound 9, 5-[2-(2-Fluoro-phenyl)-[1,8]naphthyridin-4-yl]-isoquinolin-1-ylamine]: the IC50 in assay [1] and in assay [2] (setting [3]) was less than 1000 nM each time.

`Fc1ccc(Cl)cc1-c1cc(-c2cnc(OCCN3CCCC3)c3cnccc23)c2cccnc2n1` [Compound 100, 2-(5-Chloro-2-fluoro-phenyl)-4-[1-(2-pyrrolidin-1-yl-ethoxy)-[2,7]naphthyridin-4-yl]-[1,8]naphthyridine]: the IC50 in assay [1] and in assay [2] (setting [3]) was less than 1000 nM throughout.

`CCN(CC)CCNc1ccc(-c2cc(-c3cc(Cl)ccc3F)nc3ncccc23)c2ccncc12` [Compound 92, N′-{5-[2-(5-Chloro-2-fluoro-phenyl)-[1,8]naphthyridin-4-yl]-isoquinolin-8-yl}-N,N-diethyl-ethane-1,2-diamine]: the IC50 in assay [1] and in assay [2] (setting [3]) was less than 1000 nM throughout.

`Fc1ccccc1-c1cc(-c2cccc3cnccc23)c2cccnc2n1` [Compound 19, 2-(2-Fluoro-phenyl)-4-isoquinolin-5-yl-[1,8]naphthyridine]: the IC50 in assay [1] and in assay [2] (setting [3]) was less than 1000 nM throughout.

For `Cn1cc(-c2ccc(-c3cc(-c4ccccc4F)nc4ncccc34)c3ccncc23)cn1` [Compound 65, 2-(2-Fluoro-phenyl)-4-[8-(1-methyl-1H-pyrazol-4-yl)-isoquinolin-5-yl]-[1,8]naphthyridine], the IC50 in assay [1] and in assay [2] (setting [3]) was less than 1000 nM in each case.

Consider `O=c1cc(-c2cc(-c3cc(Cl)ccc3F)nc3ncccc23)c2ccncc2n1CCN1CCOCC1` [Compound 110, 4-[2-(5-Chloro-2-fluoro-phenyl)-[1,8]naphthyridin-4-yl]-1-(2-morpholin-4-yl-ethyl)-1H-[1,7]naphthyridin-2-one], for which the IC50 was 1000 to 10000 nM in assay [1] and greater than 10000 nM in assay [2] (setting [3]).

In the case of `Fc1ccc(Cl)cc1-c1cc(-c2ccc(OCCN3CCCC3)c3cnccc23)c2cccnc2n1` [Compound 102, 2-(5-Chloro-2-fluoro-phenyl)-4-[8-(2-pyrrolidin-1-yl-ethoxy)-isoquinolin-5-yl]-[1,8]naphthyridine], the IC50 in assay [1] and in assay [2] (setting [3]) was less than 1000 nM in each case.

With `Fc1ccc(Cl)cc1-c1cc(-c2ccc(Cl)c3cnccc23)c2cccnc2n1` [Compound 83, 2-(5-Chloro-2-fluoro-phenyl)-4-(8-chloro-isoquinolin-5-yl)-[1,8]naphthyridine], the IC50 in assay [1] and in assay [2] (setting [3]) was less than 1000 nM each time.

`CCN(CC)CCOc1ccc(-c2cc(-c3cc(F)ccc3F)nc3ncccc23)c2ccncc12` [Compound 103, (2-{5-[2-(2,5-Difluoro-phenyl)-[1,8]naphthyridin-4-yl]-isoquinolin-8-yloxy}-ethyl)-diethyl-amine]: the IC50 in assay [1] and in assay [2] (setting [3]) was less than 1000 nM in each case.

In the case of `COc1nnc(-c2cc(-c3ccccc3F)nc3ncccc23)c2ccncc12` [Compound 32, 1-[2-(2-Fluoro-phenyl)-[1,8]naphthyridin-4-yl]-4-methoxy-pyrido[3,4-d]pyridazine], the IC50 in assay [1] is less than 1000 nM; in assay [2] (setting [3]), greater than 10000 nM.

As to `Fc1ccc(Cl)cc1-c1cc(-c2cccc3cnccc23)c2cccnc2n1` [Compound 2, 2-(5-Chloro-2-fluoro-phenyl)-4-isoquinolin-5-yl-[1,8]naphthyridine], the IC50 in assay [1] and in assay [2] (setting [3]) was less than 1000 nM each time.

As for `Nc1nccc2c(-c3cc(-c4c(F)cccc4F)nc4ncccc34)nccc12` [Compound 109, 5-[2-(2,6-Difluoro-phenyl)-[1,8]naphthyridin-4-yl]-[2,6]naphthyridin-1-ylamine], the figures for the IC50 in assay [1] and in assay [2] (setting [3]) were less than 1000 nM and greater than 10000 nM, respectively.

Regarding `COc1ccc(-c2cc(-c3cc(F)ccc3F)nc3ncccc23)c2ccncc12` [Compound 99, 2-(2,5-Difluoro-phenyl)-4-(8-methoxy-isoquinolin-5-yl)-[1,8]naphthyridine], the IC50 in assay [1] and in assay [2] (setting [3]) was less than 1000 nM each time.

Consider `CCN(CC)CCn1cc(-c2cc(-c3cc(Cl)ccc3F)nc3ncccc23)c2ccncc2c1=O` [Compound 104, 4-[2-(5-Chloro-2-fluoro-phenyl)-[1,8]naphthyridin-4-yl]-2-(2-diethylamino-ethyl)-2H-[2,7]naphthyridin-1-one], for which the IC50 in assay [1] and in assay [2] (setting [3]) was 1000 to 10000 nM each time.

For the origin of these results see patent US8791113B2, “2,4-diaryl-substituted [1,8] naphthyridines as kinase inhibitors for use against cancer” (Merck Patent GmbH, priority 2010, dated 2014).
